Usually NOAEL stands for the highest tested level that showed no adverse finding.

The test system of one series is Anas platyrhynchos. The note with it: acute; oral; unspecified; mortality.
The test system of a further series is Apis mellifera. The note with it: acute; duration: 48 hours; dermal; mortality.
A further series concerns Bibionidae. The note with it: chronic/long-term; duration: 28 days.
The next series relates to Canidae. As to conditions: chronic; duration: 1 years; oral; Dog Other; organ weight.
In another series the test system is Daphnia magna. The note with it: chronic/long-term; duration: 21 days; reproduction.
The next series has as its system Folsomia candida. As to conditions: chronic/long-term; reproduction.
The test system of a further series is Rattus norvegicus. As to conditions: for NOAEL: histopathology: nonneoplastic.
The test system of the next series is Tagia sp. The note with it: mortality.
The test system of a further series is Aphidius rhopalosiphi. Nature of the series: LR50; higher = less toxic. The note with it: not reported; mortality.

On to `Clc1ccccc1-c1nnc(-c2ccccc2Cl)nn1` [Clofentezine], for which the LD50 in the series with Anas platyrhynchos is greater than 3000 mg/kg-day; with Apis mellifera, greater than 84.5 µg/piece; with Rattus norvegicus (acute, oral, mortality), greater than 5200 mg/kg-day. Also, the NOEC in the series on Bibionidae came to 0.5 mg/L; with Colinus virginianus (reproduction developmental), 7.62 mg/kg-day; with Daphnia magna, 0.025 mg/L; in the series on Folsomia candida, 160 mg/kg; with Oncorhynchus mykiss (chronic/long-term, duration: 97 days), 0.007 mg/L; with Rattus norvegicus (chronic) it was 40 mg/kg-day. In the series with Tagia sp. (chronic/long-term), the NOEC is 5310 mg/kg. For the same compound, the NOAEL with Canidae was 1.7 mg/kg-day; in the series with Rattus norvegicus (chronic, duration: 2 years), 2 mg/kg-day; with Rattus norvegicus (subchronic, duration: 90 days, oral), 2.65 mg/kg-day. In addition, the LC50 is greater than 4000 mg/kg-day in the series with Colinus virginianus (acute, oral, diet, mortality); greater than 0.0146 µg/mL in the series on Oncorhynchus mykiss (acute, duration: 96 hours, mortality); 430 mg/kg in the series with Tagia sp. (acute). The LR50 in the series with Aphidius rhopalosiphi worked out at 36.2 g/ha.

The values above are taken from EPA's ToxValDB 9.5 (doi:10.2903/j.efsa.2009.269r).
